Ends that are not written are not given here. Peptide text beside a SMILES is read from it. * marks the point of attachment. AMC = Cc1cc(=O)oc2cc(N*)ccc12; Cbz = O=C(OCc1ccccc1)*; Boc = CC(C)(C)OC(=O)*
How the values were obtained:
trichomonal hydrolases [1] = assay: Experiment 1: hydrolysis of substrates by trichomonal hydrolases at pH 2.8-9.2, with or without normal vaginal fluid supernatant (NVS), absorbance 540 nm; assay type: biochemical, Trichomonas vaginalis; conditions: for Absorbance Readings: 540 nm
Protocol: Assays without normal vaginal fluid supernatant present: Two sets of six wells in a microtiter plate were prepared, with each well containing 80 μL of one of the six 200 mM buffers, 10 μL of water and 10 μL of diluted trichomonal hydrolases. Ten μL of ZRR-MNA was added to each well in the first set of wells, and 10 μl of VLK-MNA was added to each well in the second set of wells. After fifteen minutes, 100 μl of indicator solution was added to each well. Because a high pH can reduce the intensity of color produced by the indicator solution, 50 μl of 100 mM acetic acid buffer, pH 3.7, was added to each well except the pH 2.8 wells (water was substituted for the acetic acid in those wells). After another fifteen minutes, the absorbance of the solutions in the wells was measured on a microtiter plate reader set on 540 nm wavelength.
Assays with normal vaginal fluid supernatant (NVS) present: The procedure of the preceding paragraph was followed, except that 10 μL of diluted NVS was added to the wells in place of the 10 μL of water.

trichomonal hydrolases [2] = assay: Experiment 13: hydrolysis of peptide substrates by trichomonal hydrolases at low pH, no vaginal fluid; assay type: biochemical, Trichomonas vaginalis; set-up: key: −: No red color produced; +: Clearly visible red color produced; ++: Moderately intense red color produced; +++: Very intense red color produced; conditions: without vaginal fluid; threonine buffer pH 2.4; 2 mM substrate solution; 10 min 25° C.; Fast Garnet
Protocol: (§1) Forty μL of each substrate was pipetted into duplicate wells of a microtiter plate. The plate was covered with tape, placed into a 25° C. incubator, and allowed to warm. A diluted enzyme mixture was prepared by mixing one part (v/v) freshly-thawed trichomonal hydrolase solution to nine parts 2 mM L-cysteine solution. Forty μL of this mixture was added to one well of each pair of duplicate wells. For negative controls, 40 μL of 2 mM L-cysteine was added to the second well in each pair of duplicate wells. The plate was returned to the incubator and incubated for ten minutes. Forty μL of SDS/acetate solution was added to each well, followed by 40 μL of Fast Garnet solution. The intensity of color that developed in each well after five minutes was visually scored using the color scale presented in Table 13.1.

trichomonal hydrolases [3] = assay: Experiment 13: hydrolysis of peptide substrates by trichomonal hydrolases at low pH in vaginal fluid supernatant; assay type: biochemical, Trichomonas vaginalis; set-up: key: −: No red color produced; +: Clearly visible red color produced; ++: Moderately intense red color produced; +++: Very intense red color produced; conditions: Fast Garnet
Protocol: as §1
Of the nine substrates hydrolyzed by trichomonal hydrolases to produce an intense pink color (scoring ++ or +++) in the absence of vaginal fluid supernatant, only four produced intense pink color when vaginal fluid supernatant was present.

trichomonal hydrolases [4] = assay: Experiment 2: hydrolysis of substrates by trichomonal hydrolases with or without NVS, absorbance 540 nm; assay type: biochemical, Trichomonas vaginalis; conditions: absorbance at 540 nm per method; for Color Scores: Trichomonal hydrolases + NVS: 10% NVS
Protocol: Substrate solutions containing 8 mM of one of the four substrates (ZRR-MNA, BLRR-AMC, BLKR-AMC, ZKKR-AMC) in one of the two buffers (acetate, TRIS) were prepared by mixing 4 μL 100 mM substrate with 6 μL 6.3 mM L-cysteine, 14 μL 200 mM buffer and 26 μL water. Assays of trichomonal hydrolase activity, with or without the addition of NVS, were performed in 200 μL microwells. In one set of microwells, 10 μL of each substrate/buffer combination was mixed with 10 μL of undiluted trichomonal hydrolases. In a second set of microwells, 10 μL of each substrate/buffer combination was mixed with 10 μL of a mixture of 90% v/v trichomonal hydrolases and 10% NVS. Fifteen minutes later, 50 μL of indicator solution was added to each well. After another fifteen minutes, the absorbance of each solution in the wells was measured on a microtiter plate reader set on 540 nm wavelength.

[5] = system: hydrolases present in whole normal vaginal fluid; assay: Experiment 2: hydrolysis of substrates by whole normal vaginal fluid, visual color score; assay type: biochemical, human; set-up: key: 0: Yellow; 1: Peach; 2: Orange; 3: Light to medium pink; 4: Dark pink or red; 5: Fuchsia; 6: Purple; conditions: visual 0-6 scale
Protocol: Due to the partial opacity of cells and other particulate matter in whole vaginal fluid, assays of hydrolase activity present in whole vaginal fluid were performed in 20 μL conical microwells and scored visually. The vaginal fluid from a single normal, uninfected donor was agitated to resuspend the particulate matter, and 2 μL aliquots of the vaginal fluid were mixed with 2 μL of each substrate/buffer combination. To retard evaporation from the wells, water was pipetted into the mini-tray adjacent to the wells prior to replacing the tray cover. Fifteen minutes later, 2 μL of indicator solution was added to each well. After another fifteen minutes, the color in each well was visually scored in 0.5-unit increments using the 0-6 scale presented in Table 2.1.

[6] = system: non-trichomonal hydrolases present in vaginal fluid; assay: Experiment 8: polypeptide inhibition of hydrolases in whole vaginal fluid of uninfected women; assay type: biochemical, human; set-up: key: 0: Yellow; 1: Peach; 2: Orange; 3: Light to medium pink; 4: Dark pink or red; 5: Fuchsia; 6: Purple; conditions: ZRR-MNA, 10 mM polypeptide in substrate solution
Protocol: (§2) The vaginal fluid was extracted from each swab by centrifugation, and then mixed to resuspend the particulate matter. For each donor, 2 μL of vaginal fluid was pipetted into each of ten microwells, then 2 μL of one of the ten substrate/buffer/polypeptide combinations was added to each well. Additionally, 2 μL of trichomonal hydrolases was mixed with 2 μL of each of the substrate/polypeptide combinations in set of ten wells. After fifteen minutes, 2 μL of indicator solution was added to each well.

trichomonal hydrolases [7] = assay: Experiment 8: polypeptide inhibition of trichomonal hydrolases; assay type: biochemical, Trichomonas vaginalis; set-up: key: 0: Yellow; 1: Peach; 2: Orange; 3: Light to medium pink; 4: Dark pink or red; 5: Fuchsia; 6: Purple; conditions: 10 mM polypeptide in substrate solution
Protocol: as §2

[8] = with vaginal fluid supernatant, Acetate pH 5.1
[9] = with vaginal fluid supernatant, Borate pH 9.2
[10] = with vaginal fluid supernatant, Gly-gly pH 2.8
[11] = with vaginal fluid supernatant, HEPES pH 7.5
[12] = with vaginal fluid supernatant, MOPS pH 7.0
[13] = with vaginal fluid supernatant, TRIS pH 8.0
[14] = without vaginal fluid supernatant, Acetate pH 5.1
[15] = without vaginal fluid supernatant, Borate pH 9.2
[16] = without vaginal fluid supernatant, Gly-gly pH 2.8
[17] = without vaginal fluid supernatant, HEPES pH 7.5
[18] = without vaginal fluid supernatant, MOPS pH 7.0
[19] = without vaginal fluid supernatant, TRIS pH 8.0
[20] = pH 5, Donor A whole vaginal fluid
[21] = pH 5, Donor B whole vaginal fluid
[22] = pH 5, Donor C whole vaginal fluid
[23] = pH 5, Donor D whole vaginal fluid
[24] = pH 8, Donor A whole vaginal fluid
[25] = pH 8, Donor B whole vaginal fluid
[26] = pH 8, Donor C whole vaginal fluid
[27] = pH 8, Donor D whole vaginal fluid

Compound | Color Scores: Trichomonal hydrolases + NVS (trichomonal hydrolases [4]; pH 5 acetate) | Color Scores: Trichomonal hydrolases (trichomonal hydrolases [4]; pH 5 acetate) | Color Scores: Trichomonal hydrolases + NVS (trichomonal hydrolases [4]; pH 8 TRIS) | Color Scores: Trichomonal hydrolases (trichomonal hydrolases [4]; pH 8 TRIS) | Color Scores: Whole normal vaginal fluid ([5]; pH 5 acetate) | Color Scores: Whole normal vaginal fluid ([5]; pH 8 TRIS) | Hydrolase activity color score with polypeptide [6, 20] | Hydrolase activity color score with polypeptide [6, 21] | Hydrolase activity color score with polypeptide [6, 22] | Hydrolase activity color score with polypeptide [6, 23] | Hydrolase activity color score with polypeptide [6, 24] | Hydrolase activity color score with polypeptide [6, 25] | Hydrolase activity color score with polypeptide [6, 26] | Hydrolase activity color score with polypeptide [6, 27] | Hydrolase activity color score with polypeptide (trichomonal hydrolases [7]; pH 5, ZRR-MNA) | Hydrolase activity color score with polypeptide (trichomonal hydrolases [7]; pH 8, ZRR-MNA) | other results
COc1cc(NC(=O)C(CCCCN)NC(=O)C(CC(C)C)NC(=O)C(N)C(C)C)cc2ccccc12 [VLK-MNA, D-Val-Leu-Lys-MNA] | – | – | – | – | – | – | – | – | – | – | – | – | – | – | – | – | Absorbance Readings (trichomonal hydrolases [1]; [8]): 0.065; Absorbance Readings (trichomonal hydrolases [1]; [9]): 0.062; Absorbance Readings (trichomonal hydrolases [1]; [10]): 0.094; Absorbance Readings (trichomonal hydrolases [1]; [11]): 0.063; Absorbance Readings (trichomonal hydrolases [1]; [12]): 0.066; Absorbance Readings (trichomonal hydrolases [1]; [13]): 0.073; Absorbance Readings (trichomonal hydrolases [1]; [14]): 1.622; Absorbance Readings (trichomonal hydrolases [1]; [15]): 1.459; Absorbance Readings (trichomonal hydrolases [1]; [16]): 0.691; Absorbance Readings (trichomonal hydrolases [1]; [17]): 1.217; Absorbance Readings (trichomonal hydrolases [1]; [18]): 1.087; Absorbance Readings (trichomonal hydrolases [1]; [19]): 1.219; Color Score (trichomonal hydrolases [2]): ++; Color Score (trichomonal hydrolases [3]): +
Cc1cc(=O)oc2cc(NC(=O)[C@H](CCCN=C(N)N)NC(=O)[C@H](CCCCN)NC(=O)[C@H](CC(C)C)NC(=O)OC(C)(C)C)ccc12 [BLKR-AMC, BOC-Leu-Lys-Arg-AMC] (Boc-Leu-Lys-Arg-{AMC}) | 0.123 | 0.638 | 0.731 | 0.649 | 0.5 | 6 | – | – | – | – | – | – | – | – | – | – | –
KPQLWP | – | – | – | – | – | – | 0 | 0 | 0 | 0 | 0.5 | 0.5 | 0 | 0 | 3 | 3 | –
Cc1cc(=O)oc2cc(NC(=O)[C@H](CCCN=C(N)N)NC(=O)[C@H](CCCN=C(N)N)NC(=O)[C@H](CC(C)C)NC(=O)OC(C)(C)C)ccc12 [BLRR-AMC, BOC-Leu-Arg-Arg-AMC] (Boc-Leu-Arg-Arg-{AMC}) | 0.114 | 0.536 | 0.568 | 0.463 | 0.5 | 6 | – | – | – | – | – | – | – | – | – | – | –
KRQHPG | – | – | – | – | – | – | 2 | 2 | 0 | 2 | 2.5 | 2 | 0.5 | 2 | 3 | 3 | –
COc1cc(NC(=O)[C@H](CCCN=C(N)N)NC(=O)[C@H](CCCN=C(N)N)NC(=O)OCc2ccccc2)cc2ccccc12 [ZRR-MNA, CBZ-Arg-Arg-MNA] | 0.068 | 0.420 | 0.182 | 0.385 | 3 | 4 | – | – | – | – | – | – | – | – | – | – | color production relative to that observed when vaginal fluid was not present (trichomonal hydrolases [1]; pH 8 TRIS buffer, 0.403/0.667): 60%; Absorbance Readings (trichomonal hydrolases [1]; [8]): 0.082; Absorbance Readings (trichomonal hydrolases [1]; [9]): 0.089; Absorbance Readings (trichomonal hydrolases [1]; [10]): 0.085; Absorbance Readings (trichomonal hydrolases [1]; [11]): 0.386; Absorbance Readings (trichomonal hydrolases [1]; [12]): 0.313; Absorbance Readings (trichomonal hydrolases [1]; [13]): 0.403; Absorbance Readings (trichomonal hydrolases [1]; [14]): 0.792; Absorbance Readings (trichomonal hydrolases [1]; [15]): 0.172; Absorbance Readings (trichomonal hydrolases [1]; [16]): 0.631; Absorbance Readings (trichomonal hydrolases [1]; [17]): 0.738; Absorbance Readings (trichomonal hydrolases [1]; [18]): 0.638; Absorbance Readings (trichomonal hydrolases [1]; [19]): 0.667; Color Score (trichomonal hydrolases [2]): ++; Color Score (trichomonal hydrolases [3]): +
Cc1cc(=O)oc2cc(NC(=O)[C@H](CCCNC(=N)N)NC(=O)[C@H](CCCCN)NC(=O)[C@H](CCCCN)NC(=O)OCc3ccccc3)ccc12 [ZKKR-AMC, CBZ-Lys-Lys-Arg-AMC] (Cbz-Lys-Lys-Arg-{AMC}) | 0.099 | 0.225 | 0.352 | 0.357 | 0.5 | 2 | – | – | – | – | – | – | – | – | – | – | –
Arg-Lys-Asn-Val-Tyr (RKNVY; printed: Arg-Lys-Asn-Val-Tyr) | – | – | – | – | – | – | 0.5 | 0 | 0 | 0 | 0.5 | 0.5 | 1 | 1 | 3 | 3 | –
RPKPQFFGLM [Arg-Pro-Lys-Pro-Gln-Phe-Phe-Gly-Leu-Met] | – | – | – | – | – | – | 0.5 | 1 | 0 | 0.5 | 0.5 | 0.5 | 0 | 0 | 1 | 0.5 | –
